A short description of this assay: Inhibitory activity against Platelet-derived growth factor receptor kinase.

Usually IC50 stands for the midpoint of a concentration-inhibition curve. Lower therefore signals inhibition by little substance.

Molecule `c1ccc(-c2cnc3cc4ccccc4cc3n2)cc1` yielded an IC50 of 0.9 µM.
